Reference: patent publication US11744819B2, “Antibiotic cannabinoid-terpene formulations” (priority 2019, dated 2023)
Converted amounts (≈) assume the structure as drawn. “And” between values parts separate entries of the source, which are not always exact repeats. Equal values may be shown once. Read-outs that look alike come from different tables or passages of the source.

Assays:
E. faecium 3303 = assay: microbe, parasite or virus in culture; assay type: cell-based, Enterococcus faecium; conditions: for activities of the terpene with CBC, CBO, or CBG: terpene-cannabinoid combinations; for MIC Alone / MIC In combination / Max. fold change in MIC: E. faecium 3303; for MIC Alone: compound alone in checkerboard; for Max. fold change in MIC: decrease
Excerpt: In therapeutic applications, synergy between active ingredients occurs when an observed combined therapeutic effect is greater than the sum of therapeutic effects of individual active ingredients, or a new therapeutic effect is produced that the active ingredients could not produce alone. […] In this context, the enhancement of therapeutic effect may take the form of increased efficacy or potency and/or decreased adverse effects. The synergistic effect may be mediated in whole or in part by the pharmacokinetics and/or pharmacodynamics of the active ingredients in a subject, so that the amount and proportion of the ingredients in the formulation may be synergistic in vivo. This in vivo synergy may be effected with a formulation that includes the active ingredients in amounts and proportions that are also synergistic in in vitro assays of efficacy. As used herein, the term “synergistically effective amounts” accordingly refers to amounts that are synergistic in vivo and/or in vitro. A numeric quantification of synergy is often expressed as a fractional inhibitory concentration index (FICI), which represents the sum of the fractional inhibitory concentrations (FICs) of each drug tested, where the FIC is determined for each drug by dividing the minimum inhibitory concentration (MIC, the lowest concentration of the drug which prevents visible growth of the bacterium in a standard in vitro assay-standard colorometric assay based on resazurin) of each drug when used in combination by the MIC of each drug when used alone. In very general terms, a FICI lower or higher than 1 indicates positively correlated activity (at least additive or potentiation) or an absence of positive interactions, respectively. More definitively, synergy of two compounds may be conservatively defined as a FICI of ::::0.5 (see Odds, 2003; with additivity or potentiation corresponding to a FICI of >0.5 to ::::0.75; no interaction (indifference) corresponding to a FICI of >1 to ::::4; and antagonism corresponding to a FICI of >>4). Synergy of three compounds has been defined as a FICI of ::::1.0. (Berenbaum, 1978; Yu et al., 1980). To estimate the optimal concentrations in triple combinations, the optimal concentrations of trans-caryophyllene and cannabinoid were utilized in combination with a series of daptomycin dilutions.
(§1) Pre-cultures of bacteria growing in their corresponding liquid media (defined below) were diluted to an 00600 of 0.0025 and 100 μl was added to 100 μl of medium containing serial 2-fold dilutions of cannabinoid (cannabinoid stocks, in methanol or acetonitrile for acidic forms, were diluted in growth medium) in 96-well plates. Plates were then incubated for 20-24 h at 37° C., and growth was recorded as 00600 in a Thermo Scientific™ Varioskan™ Flash Multimode Reader.
Method for Tables 4-7. Interaction of Cannabinoids CBC, CBD and CBG with Terpenes and Daptomycin:
(§2) FICI values was determined in a 96 well checkerboard format using the MIC assay for cannabinoids (compound A), terpenes (compound B), and daptomycin (compound C) alone and in combinations. Terpene stocks were prepared in DMSO and diluted in the growth medium. The fractional inhibitory concentration for each compound was calculated as follows: FICA=(MIC of compound A in the presence of compound B)/(MIC of compound A alone). Similarly, the FICs for compounds Band C were calculated. The FICI was calculated as FICA plus FICs plus FICc.

E. faecium VRE 55A6 = assay: microbe, parasite or virus in culture; assay type: cell-based, Enterococcus faecium; conditions: E. faecium VRE 55A6
Excerpt: In therapeutic applications, synergy between active ingredients occurs when an observed combined therapeutic effect is greater than the sum of therapeutic effects of individual active ingredients, or a new therapeutic effect is produced that the active ingredients could not produce alone. […] In this context, the enhancement of therapeutic effect may take the form of increased efficacy or potency and/or decreased adverse effects. The synergistic effect may be mediated in whole or in part by the pharmacokinetics and/or pharmacodynamics of the active ingredients in a subject, so that the amount and proportion of the ingredients in the formulation may be synergistic in vivo. This in vivo synergy may be effected with a formulation that includes the active ingredients in amounts and proportions that are also synergistic in in vitro assays of efficacy. As used herein, the term “synergistically effective amounts” accordingly refers to amounts that are synergistic in vivo and/or in vitro. A numeric quantification of synergy is often expressed as a fractional inhibitory concentration index (FICI), which represents the sum of the fractional inhibitory concentrations (FICs) of each drug tested, where the FIC is determined for each drug by dividing the minimum inhibitory concentration (MIC, the lowest concentration of the drug which prevents visible growth of the bacterium in a standard in vitro assay-standard colorometric assay based on resazurin) of each drug when used in combination by the MIC of each drug when used alone. In very general terms, a FICI lower or higher than 1 indicates positively correlated activity (at least additive or potentiation) or an absence of positive interactions, respectively. More definitively, synergy of two compounds may be conservatively defined as a FICI of ::::0.5 (see Odds, 2003; with additivity or potentiation corresponding to a FICI of >0.5 to ::::0.75; no interaction (indifference) corresponding to a FICI of >1 to ::::4; and antagonism corresponding to a FICI of >>4). […] (Berenbaum, 1978; Yu et al., 1980). To estimate the optimal concentrations in triple combinations, the optimal concentrations of trans-caryophyllene and cannabinoid were utilized in combination with a series of daptomycin dilutions.
as §1, §2

[1] = tested on: Staphylococcus aureus MRSA; assay: microbe, parasite or virus in culture; assay type: cell-based
[2] = tested on: E. faecium clinical isolate 55A6 (vancomycin and daptomycin resistant); conditions: clinical enterococcal strain 55A6, vancomycin and daptomycin resistant
[3] = tested on: Enterococcus faecium 33D3
Enterococcus faecalis = assay: MIC determination; assay type: cell-based
[4] = tested on: E. faecium clinical isolate 69C6 (vancomycin resistant); conditions: clinical enterococcal strain 69C6, vancomycin resistant
[5] = tested on: Streptococcus pyogenes ATCC 51878; assay: MIC determination; assay type: cell-based; conditions: Streptococcus pyogenes, ATCC51878
[6] = tested on: Mycobacterium tuberculosis H37Rv; assay: MIC determination (PrestoBlue); assay type: cell-based
[7] = tested on: Staphylococcus epidermidis ATCC 12228; assay: MIC determination; assay type: cell-based; conditions: Staphylococcus epidermidis, ATCC12228
[8] = tested on: Staphylococcus epidermidis ATCC 14990; assay: MIC determination; assay type: cell-based; conditions: Staphylococcus epidermidis, ATCC14990
[9] = tested on: Mycobacterium abscessus ATCC 19977; assay: MIC determination (resazurin); assay type: cell-based
[10] = tested on: E. faecium clinical isolate 58C9 (vancomycin and daptomycin resistant); conditions: clinical enterococcal strain 58C9, vancomycin and daptomycin resistant
[11] = tested on: E. faecium clinical isolate 58C9 (vancomycin and daptomycin resistant); assay: microbe, parasite or virus in culture; conditions: Enterococcus faecium
[12] = tested on: Enterococcus faecium 33D3; assay: microbe, parasite or virus in culture
[13] = tested on: E. faecium clinical isolate 69C6 (vancomycin resistant); assay: microbe, parasite or virus in culture; conditions: Enterococcus faecium
[14] = tested on: E. faecium clinical isolate 55A6 (vancomycin and daptomycin resistant); assay: microbe, parasite or virus in culture; conditions: Enterococcus faecium
[15] = triple, with daptomycin and CBC
[16] = triple, with daptomycin and CBD
[17] = triple, with daptomycin and CBG
[18] = 33D3, Enterococcus faecium 33D3 (Table 1)
[19] = 33D3, clinical enterococcal strain 3303
[20] = Mycobacterium tuberculosis, H37RV, Media 7H9, read-out: MIC
[21] = Mycobacterium tuberculosis, H37RV, Media PB, read-out: MIC
[22] = Mycobacteroides abscessus, ATCC19977

## C/C1=C\CC/C(C)=C/CC(C)(C)/C=C/C1 [a-humulene]
E. faecium 3303
  activities of the terpene with CBC, CBO, or CBG: synergistic activities

## C=C1CC/C=C(\C)CC[C@@H]2[C@@H]1CC2(C)C (relative stereo) [Trans-caryophyllene, trans-caryophyllene]
E. faecium VRE 55A6; pairwise, with CBC
  MIC In combination: 1 mg/L
  Max. fold change in MIC: >32 fold
E. faecium VRE 55A6; pairwise, with CBD
  MIC In combination: 8 mg/L
  Max. fold change in MIC: >4 fold
E. faecium VRE 55A6; pairwise, with CBG
  MIC In combination: >32 mg/L
  Max. fold change in MIC: none
E. faecium VRE 55A6; pairwise, with daptomycin
  MIC In combination: 2 mg/L
  Max. fold change in MIC: >8 fold
E. faecium VRE 55A6; [15]
  MIC In combination: 2 mg/L
  Max. fold change in MIC: > 32 fold
E. faecium VRE 55A6; [16]
  MIC In combination: 2 mg/L
  Max. fold change in MIC: > 32 fold
E. faecium VRE 55A6; [17]
  MIC In combination: 2 mg/L
  Max. fold change in MIC: > 32 fold
E. faecium 3303
  MIC Alone: >16 mg/L and 16 mg/L
  activities of the terpene with CBC, CBO, or CBG: synergistic activities
E. faecium 3303; listed as Tram-caryophyllene
  MIC Alone: 32 mg/L
E. faecium 3303; pairwise, with CBC
  MIC In combination: 0.25 mg/L
  Max. fold change in MIC: 64 l fold
E. faecium 3303; pairwise, with CBD
  MIC In combination: 2 mg/L
E. faecium 3303; pairwise, with CBG
  MIC In combination: 4 mg/L
  Max. fold change in MIC: 8″′ fold
E. faecium 3303; pairwise, with daptomycin
  MIC In combination: 4 mg/L
  Max. fold change in MIC: >4 l fold and >4″′ fold
E. faecium 3303; [15]
  MIC In combination: 2 mg/L
  Max. fold change in MIC: 8 l fold
E. faecium 3303; [16]
  MIC In combination: 2 mg/L
  Max. fold change in MIC: 8 fold
E. faecium 3303; [17]
  MIC In combination: 1 mg/L
  Max. fold change in MIC: 16 fold

## CCCCCc1cc2c(c(O)c1C(=O)O)C=CC(C)(CCC=C(C)C)O2 (stereo not shown) [CBCA, cannabichromic acid]
[1]
  MIC: 4 mg/L (≈ 11.2 µM)
[2]
  MIC: 2 mg/L (≈ 5.58 µM)
[3]; Enterococcus faecium 33D3 (Table 1)
  MIC: 4 mg/L (≈ 11.2 µM)
[3]; clinical enterococcal strain 3303
  MIC: 4 mg/L (≈ 11.2 µM)
Enterococcus faecalis
  MIC: 4 mg/L (≈ 11.2 µM)
[4]
  MIC: 4 mg/L (≈ 11.2 µM)
[5]
  MIC: 0.5 to 1 mg/L
[6]; Media 7H9
  MIC: 2 mg/L (≈ 5.58 µM)
[6]; Media PB
  MIC: 4 mg/L (≈ 11.2 µM)
[7]
  MIC: 2 mg/L (≈ 5.58 µM)
[8]
  MIC: 2 mg/L (≈ 5.58 µM)
[9]; Mycobacterium abscessus ATCC 19977
  MIC: 4 mg/L (≈ 11.2 µM)
[10]
  MIC: 4 mg/L (≈ 11.2 µM)

## C=C(C)[C@@H]1CCC(C)=C[C@H]1c1c(O)cc(CCCCC)c(C(=O)O)c1O [CBDA, cannabidiolic acid]
[1]
  MIC: 16 mg/L (≈ 44.6 µM)
[11]
  MIC: 16 mg/L (≈ 44.6 µM)
Enterococcus faecalis
  MIC: 16 mg/L (≈ 44.6 µM)
[12]; [18]
  MIC: 16 mg/L (≈ 44.6 µM)
[12]; [19]
  MIC: 16 mg/L (≈ 44.6 µM)
[13]
  MIC: 16 mg/L (≈ 44.6 µM)
[5]
  MIC: 8 mg/L (≈ 22.3 µM)
[14]
  MIC: 16 mg/L (≈ 44.6 µM)
[6]; [20]
  MIC: 2 mg/L (≈ 5.58 µM)
[6]; [21]
  MIC: 4 mg/L (≈ 11.2 µM)
[7]
  MIC: 4 mg/L (≈ 11.2 µM)
[8]
  MIC: 4 mg/L (≈ 11.2 µM)
[9]; [22]
  MIC: 32 mg/L (≈ 89.3 µM)

## CCCCCc1cc(O)c(C/C=C(\C)CCC=C(C)C)c(O)c1C(=O)O [CBGA, cannabigerolic acid]
[1]
  MIC: 1 mg/L (≈ 2.77 µM)
[11]
  MIC: 16 mg/L (≈ 44.4 µM)
Enterococcus faecalis
  MIC: 8 mg/L (≈ 22.2 µM)
[12]; [18]
  MIC: 16 mg/L (≈ 44.4 µM)
[12]; [19]
  MIC: 16 mg/L (≈ 44.4 µM)
[13]
  MIC: 8 mg/L (≈ 22.2 µM)
[5]
  MIC: 2 mg/L (≈ 5.55 µM)
[14]
  MIC: 8 mg/L (≈ 22.2 µM)
[6]; [20]
  MIC: 4 mg/L (≈ 11.1 µM)
[6]; [21]
  MIC: 2 mg/L (≈ 5.55 µM)
[7]
  MIC: 2 mg/L (≈ 5.55 µM)
[8]
  MIC: 2 mg/L (≈ 5.55 µM)
[9]; [22]
  MIC: 16 mg/L (≈ 44.4 µM)
